Results taken from patent US20060078502A1, “Charge neutral complexes of paramagnetic metals as intracellular magnetic resonance imaging contrast agents” (priority 2004, published 2006).

Key:
C3H mouse = assay: MRI processing and imaging of a mouse after intravenous administration; type: in vivo
From the text: A Bruker 7.0 Tesla MRI System (BioSpin MRI Gmbh, Avance) operated at 300 MHz was used in this study. The system parameters are optimized for high resolution imaging with either T1-weighted (Gd-complexes) or T2-weighted agents (Fe-complexes). The mouse was placed on a stereotactic holder with a prone position. The holder stayed in the center of the 32 mm bore of the transmitter-receiver RF coil. The tail-vein was cannulated with a 27-29 G needle for delivery of contrast agents via slow infusion. 0.2 ml of 6 μM of the gadolium pyrithione complex was administered per dose. Two doses were administered 27 minutes apart. After acquisition of scout images, T1-weighted data were acquired with a spoiled gradient echo sequence, T1=100 to 700 ms, for example, 200 ms, TR (repetition time)=10 to 500 ms, for example, 13 ms, TE (echo time)=5 to 10 ms, for example, 6 ms, and flip angle=60-90 degree. Data were acquired before and after injection of contrast media to evaluate the reduction of tissue T1-values from 500-700 ms to 100-200 ms with the Gd-complexes or Gd-tagged cells.
FIG. 1 presents a T1-weighted MR image (coronal slice, 1 mm thickness) of the C3H mouse at 3 minutes after the second intravenous administration of Gd-(tris)pyrithione complex, providing an image at 3 and 30 minutes post administration. […] The conclusion that the complex is stable is reached because, unstable Gd-complexes hydrolyze and Gd-colloids form and localize in the macrophage pool of reticuloendothelial system of liver, spleen and bone marrow.

[1] = tested on: plasma lipoproteins (VLDL, LDL and HDL); assay: Kinetics of gadolinium complex binding to plasma lipoproteins; type: in vitro ADME; conditions: Gd-153 labeled, 60 minutes at room temperature, density gradient separation
Experimental: For this study, the galadolinium pyrithione complex labeled with Gd-153 was incubated directly with isolated lipoprotein particles in acetate-citrate buffer or was incubated with intact plasma for 60 minutes at room temperature. Very low, low and high-density lipoproteins (VLDL, LDL and HDL) were separated by cesium chloride density gradients (1.06 and 1.25 g/ml) in an ultracentrifuge (Beckman L8-55) in a swinging bucket rotor using standard protocols. The mixture in 4.5 ml in polyallomer tubes was spun at 210,000 g for 20 hours. The plasma proteins in the […], and layers representing each of VLDL, LDL and HDL were removed from the top of the tube by suction. The amount of gadolinium pyrithione bound to VLDL, LDL, HDL and plasma proteins was measured by counting the radioactivity in each fraction with the gamma well counter. The majority of gadolinium complexes were bound to lipoproteins. Accordingly, the gadolinium-tagged lipoprotein particles are useful to localize the sites of vulnerable plaques in patients, thus identifying the rupture-prone vulnerable plaques in the coronary or carotid arteries with MRI.

[2] = Solubility of the complex; type: physicochemical; conditions: 0.2 molar acetate buffer; mixture of acetate buffer and saline or human plasma
From the text: A paramagnetic metal atom has one or more unpaired […], providing a half-integral “spin” quantum number. For metal complex MRI contrast agents, the MRI relaxation efficiency per molecule depends on the nature of the metal in the chelate complex and the size of the metal chelate complex. These contrast agents serve as relaxation sinks for the protons of adjacent water molecules. The metal complex lattice receives the energy from the protons excited by radiofrequency (RF) pulses. […] This facilitates energy transfer, and provides increased imaging efficiency. The complexes of the present invention are soluble in lipids and provide relaxivities in the range 50-150 millimole^−1 second^−1. The gadolinium complexes of this invention, for instance, provide T1 relaxivity values of 80 per millimole per second and T2 values of 93 millimole^−1 second^−1. The complexes of the present invention are thus particularly useful as intra-cellular MRI contrast agents.
(§1) This formulation is found to be stable after one year of storage in the refrigerator. It is soluble in 0.2 molar acetate buffer, in a mixture of acetate buffer and saline or human plasma facilitating the storage of Gd-complex, its transport and control of reconstitution by adjustment of injectate volume, and its use in cell-tagging and administration of tagged cells.

[3] = Storage stability of the complex (solution formulation, lyophilized); type: physicochemical; conditions: after one year of storage in the refrigerator; acetate-dextrose buffer, pH 6.4
Experimental: The contrast agent of the invention can be packaged into kit form. Conveniently, the complexes are formed as described herein, sterilized, filled into sterile bottles and then freeze-dried (lyophilized). The lyophilized complex is stable when stored for at least one year at 4° C. The lyophilized complex is reconstituted in acetate buffer (about 0.2 M NaOAc, pH 6.0 to 6.4) to the desired concentration for injection for use.
Fifty microliters of the gadolinium chloride solution is mixed with 250-400 microliters of the pyrithione solution. A white precipitate of gadolinium pyrithione complex is formed, which is vortexed for good mixing. The gadolinium pyrithione complex is dissolved in 1250 microliters of 0.2 molar acetate-dextrose buffer. The final pH is adjusted to 6.4 with a pH electrode (Beckman-Coulter). The osmolarity of the solution is checked by the freezing point method to 275 mOsmole. The gadolinium pyrithione complex solution is sterilized by membrane filtration (0.22 micrometer filter) and stored in a refrigerator.
as §1

human neutrophils = assay: Kinetics of complex loading into cells; type: cell-based; conditions: 37° C., neutrophils in donor plasma, 3.7 mg gadolinium
Experimental: Kinetics of Complex Loading into Cells. For this study, human neutrophils were obtained from a single donor and suspended in 50 microliters of the same donor's plasma in a series of test tubes. The neutrophils were incubated at 37° C. with gadolinium pyrithione complex in a shaker bath. The amount of gadolinium pyrithione used for each test tube provided 3.7 mg of gadolinium, which was added to the test tube in 250 microliters of acetate buffer. After various incubation times, the neutrophil cells were centrifuged, washed with buffer and the amount of neutrophil-bound gadolinium was calculated.

[Gd+3].[O-][n+]1ccccc1[S-].[O-][n+]1ccccc1[S-].[O-][n+]1ccccc1[S-] [gadolinium pyrithione complex, gadolinium (tris)pyrithione]
imaging of liver, spleen and bone marrow (reticuloendothelial system) (C3H mouse; 3 and 30 minutes post administration): None of these tissues were imaged
in vivo stability of the agent (C3H mouse; C3H mouse, intravenous, two doses 27 minutes apart, T1-weighted MRI): stable
localization in late phase (C3H mouse; thirty minutes after the first administration): bladder
localization in early phase post-IV injection (C3H mouse; three minutes after the second administration): heart
fraction of complex bound to lipoproteins [1]: majority
solubility [2]: soluble
stability of formulation on storage [3]: stable
Gadolinium (% in cells) (human neutrophils; incubation time 05 minutes): 99.21%
Gadolinium (% in cells) (human neutrophils; incubation time 10 minutes): 99.75%
Gadolinium (% in cells) (human neutrophils; incubation time 30 minutes): 99.36%
Gadolinium (% in cells) (human neutrophils; incubation time 45 minutes): 99.11%
